Converted amounts (≈) assume the structure as drawn.
Legend:
[1] = In vitro dissolution of indomethacin under sink conditions (USP paddle); type: physicochemical; settings: 25 mg indomethacin, phosphate buffer pH 7.2, sink conditions
Method: DSC was performed using TA Instruments Q100 differential scanning calorimeter. A 15 mg sample was heated in an aluminium pan at a rate of […] over a temperature range of 25-200° C., under a flow of dry nitrogen gas (80 ml/min). Instrument calibration was undertaken using an indium standard. Powder XRD patterns were obtained using Philips (PW 1050/25) X-ray diffractometer with CoKα radiation (45 kV, 35 mA). The samples were scanned between 10-50° (2θ) at a rate of 1.0°/min. […] The HPLC system (Hewlett Packard 1100) consisted of a series […] auto sampler and G1314A variable UV detector (Shimadzu Corporation). Separation was achieved using a LiChrospher 100 RP-18 analytical column (5 μm, 100 mm×4.6 mm i.d.). […] All chromatographic separations were performed at room temperature at a flow rate of 1 mL/min. The column eluent was monitored at a wavelength of 320 nm. […] The dissolution tests under sink conditions were performed using a USP paddle system (Vankel) and kept at a controlled 37° C. […] The paddle was rotated at 50 rpm. Samples (5 mL) were taken every 15 minutes for 3 h. […] The samples were measured using HPLC. […] With the conventional assumption that the rate and extent of drug dissolution directly reflects the concentration of readily absorbable drug in the intestinal lumen, it is proposed that capsules have the potential to enhance the oral absorption process. […]

[2] = Equilibrium solubility of celecoxib in phosphate buffer containing SLS; type: physicochemical; settings: for folds of saturation volume (FSV): 900 ml media for 2 mg celecoxib; for solubility thermodynamic at 48 h: phosphate buffer, 37 °C, thermodynamic from solid
Method: The mixture was shaken in a thermostated mixer chamber (37° C.) for 48 h. Equilibrated samples were centrifuged at 9,400 g for 15 min to remove undissolved materials. The amount of celecoxib dissolved was assayed using the HPLC method outlined above.

[3] = In vitro dissolution study of celecoxib formulations (USP type II paddle); type: physicochemical; settings: phosphate buffer, 0.5% SLS, 37° C.
Method: The in vitro dissolution study was performed in 900 ml of phosphate buffer (0.05 M, pH 7.2) containing 0, 0.05, and 0.5% (w/v) SLS, using USP 23 type II apparatus (paddle method) operating at 75±0.02 rpm. Each sample, containing ˜2 mg of celecoxib (equivalent to the amount used in the in vivo studies), was added into the dissolution medium maintained at 37±0.5° C. Aliquots of 3 ml were drawn at fixed time points and replaced with an equal volume of fresh dissolution medium. The drawn samples were centrifuged at 9,400 g for 15 min to remove undissolved materials. The supernatant was subjected to another cycle of centrifugation under the same conditions. An aliquot of 100 μl was taken from the middle portion of each centrifuged samples before diluted 2-fold with acetonitrile. […] The amount of celecoxib dissolved in the dissolution media was analysed by HPLC as described previously.
SLS was employed as a wetting and solubilising agent in the dissolution medium for simulating the sink effect in the gastrointestinal tract. The dissolution profiles of celecoxib from various formulations are illustrated in FIG. 3. […] The influence of silica nanoparticle layers of different hydrophobicity in controlling drug release from homogenised liquid emulsions has been previously investigated (Simovic et al., 2007). Here, the dissolution profiles of celecoxib from spray-dried capsules formulated with hydrophilic silica were obtained. Two dissolution parameters were evaluated from the study employing sink conditions: the dissolution efficiency (% DE), and the time to achieve 50% of drug dissolution (t50%) (Table 2). % DE is the area under the dissolution curve between two specified time points expressed as a percentage of the area of the rectangle described by 100% dissolution in the same time intervals, which can be calculated using Eq. (II): […]

[4] = Distribution ratio of celecoxib in Miglyol oil and phosphate buffer; type: physicochemical; settings: Miglyol oil and blank phosphate buffer
[5] = Solubility of celecoxib in Miglyol oil; type: physicochemical; settings: oil or lipid
[6] = cited from earlier work
[7] = after oral delivery; cited from earlier work
[8] = system: prostaglandin E2; settings: reported for humans, based on inhibitory effect on prostaglandin E2; cited from earlier work

SMILES	t50% (time taken to achieve 50% of drug dissolution) [1] [min]	folds of saturation volume (FSV) ([2]; 0% SLS)	folds of saturation volume (FSV) ([2]; 0.05% SLS)	folds of saturation volume (FSV) ([2]; 0.25% SLS)	folds of saturation volume (FSV) ([2]; 0.5% SLS)	folds of saturation volume (FSV) ([2]; 1.0% SLS)	solubility thermodynamic at 48 h ([2]; pH 7.2, aqueous buffer, phosphate buffer pH 7.2, 0% SLS) [µg/mL]	solubility thermodynamic at 48 h ([2]; pH 7.2, aqueous with cosolvent or surfactant or cyclodextrin, 0.05% SLS) [µg/mL]	solubility thermodynamic at 48 h ([2]; pH 7.2, aqueous with cosolvent or surfactant or cyclodextrin, 0.25% SLS) [µg/mL]	solubility thermodynamic at 48 h ([2]; pH 7.2, aqueous with cosolvent or surfactant or cyclodextrin, 0.5% SLS) [µg/mL]	solubility thermodynamic at 48 h ([2]; pH 7.2, aqueous with cosolvent or surfactant or cyclodextrin, 1.0% SLS) [µg/mL]	t50% (time to achieve 50% of drug dissolution) [3] [min]	Dissolution efficiency (% DE) ([3]; t = 5 min) [%]	Dissolution efficiency (% DE) ([3]; t = 15 min) [%]	Dissolution efficiency (% DE) ([3]; t = 180 min) [%]	distribution ratio (log D) [4]	solubility [5] [µg/mL]	log P [6]	Tmax [7]	minimum effective pain-relieving plasma concentration [8] [ng/mL]
COc1ccc2c(c1)c(CC(=O)O)c(C)n2C(=O)c1ccc(Cl)cc1 [Indomethacin, 1-(4-chlorobenzoyl)-5-methoxy-2-methyl-1-H-indole-3-acetic acid]	58.8 ± 0.5	–	–	–	–	–	–	–	–	–	–	–	–	–	–	–	–	–	–	–
Cc1ccc(-c2cc(C(F)(F)F)nn2-c2ccc(S(N)(=O)=O)cc2)cc1 [celecoxib, 4-[5-(4-methylphenyl)-3-(trifluoromethyl)pyrazol-1-yl]benzenesulfonamide]	–	0.9	1.0	1.4	3.6	53.6	2.11 ± 0.01 (≈ 5.53 µM)	2.33 ± 0.15 (≈ 6.11 µM)	3.2 ± 0.16 (≈ 8.39 µM)	8 ± 0.39 (≈ 21 µM)	119 ± 29 (≈ 312 µM)	144.8	8.9 ± 1	24.3 ± 5	48.9 ± 3	3.7	~10000 (≈ 26200 µM)	≈ 3.5	approximately three	~155

— patent US8778400B2, “Nanoparticle-stabilized capsule formulation for treatment of inflammation” (University of South Australia, priority 2008, dated 2014)
